Measurements reported in PMC11284788, “NN1213 – A Potent, Long-Acting, and Selective Analog of Human Amylin” (Journal of Medicinal Chemistry, 2024).
Like-named read-outs stand apart in the source and are kept apart here. Numbered stars: 1 amine (or outer) side, 2 acyl side, 3 side chain; on linkers, the order of the positions; unused ones are H or OH. Bridge positions count the residues as written; N and C are the ends. Peptide text beside a SMILES is read from it. * marks the point of attachment. C20 diacid = O=C(O)CCCCCCCCCCCCCCCCCCC(=O)*; γGlu = O=C(O)[C@H](CCC(=O)[*:2])N[*:1]

Experiments:
[1] = target: T1, rat CTR (Rattus norvegicus, UniProt P32214); experiment: cAMP FlashPlate assay, rat CTR; assay type: cell-based; conditions: cAMP (rat receptor assay)
T1 construct: expressed in transfected cells; host or cells: BHK tk-ts 13, transient (FuGENE 6)
T1 sequence (P32214 25-479 isoform P32214-2 limits assumed): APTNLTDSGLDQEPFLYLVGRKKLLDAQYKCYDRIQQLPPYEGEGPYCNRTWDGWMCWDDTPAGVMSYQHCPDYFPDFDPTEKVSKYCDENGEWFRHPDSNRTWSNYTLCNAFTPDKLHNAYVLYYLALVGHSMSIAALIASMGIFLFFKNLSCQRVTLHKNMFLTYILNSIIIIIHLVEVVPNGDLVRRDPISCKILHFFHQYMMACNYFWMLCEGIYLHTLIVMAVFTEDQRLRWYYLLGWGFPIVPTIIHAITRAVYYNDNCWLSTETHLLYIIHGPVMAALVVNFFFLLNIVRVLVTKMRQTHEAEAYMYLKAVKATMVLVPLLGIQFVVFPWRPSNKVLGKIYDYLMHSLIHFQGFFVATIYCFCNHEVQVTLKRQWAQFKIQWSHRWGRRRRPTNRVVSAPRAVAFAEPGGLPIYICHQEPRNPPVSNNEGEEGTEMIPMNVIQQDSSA

[2] = system: rats; experiment: Acute food intake in rats; assay type: in vivo, rat; conditions: single sc injection of 30 nmol/kg, relative to vehicle, mean ± SEM, n = 5–7 per group
[3] = target: T2, hCTR (Homo sapiens, UniProt P30988); experiment: cAMP-responsive element luciferase reporter assay, human CTR; assay type: cell-based; conditions: luciferase (human receptor assay)
T2 sequence (P30988 25-474): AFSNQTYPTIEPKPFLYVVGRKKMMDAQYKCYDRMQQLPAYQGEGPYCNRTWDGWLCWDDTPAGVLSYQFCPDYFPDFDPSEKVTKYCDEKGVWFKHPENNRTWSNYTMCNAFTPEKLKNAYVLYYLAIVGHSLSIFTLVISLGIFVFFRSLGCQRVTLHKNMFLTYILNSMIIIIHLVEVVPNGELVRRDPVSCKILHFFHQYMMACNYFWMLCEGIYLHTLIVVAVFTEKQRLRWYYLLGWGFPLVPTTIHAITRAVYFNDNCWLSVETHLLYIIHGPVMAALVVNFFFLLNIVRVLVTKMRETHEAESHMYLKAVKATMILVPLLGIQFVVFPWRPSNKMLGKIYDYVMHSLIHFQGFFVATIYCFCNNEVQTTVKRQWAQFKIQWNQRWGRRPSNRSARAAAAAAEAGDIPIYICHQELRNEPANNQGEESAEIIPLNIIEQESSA

[4] = Tables S12 and S14, read-out: rCTR pEC50 (converted)
[5] = transiently transfected BHK tk-ts 13 cells, FlashPlate, 30 min room temperature, 2% HSA, read-out: rCTR EC50
[6] = Tables S12 and S14, read-out: hCTR pEC50 (converted)
[7] = BHK cells stably expressing hCTR and CRE-luciferase, 3 h, 37 °C, 10% FBS, read-out: hCTR EC50

EC50 [1, 4] [nM] | EC50 [1, 5] [nM] | EC50 [3, 6] [nM] | EC50 [3, 7] [nM] | hCTR pEC50 ([3]; Tables S12 and S14) | Structure (SMILES) | Acute food intake reduction 0–24 h [2] [%] | Acute food intake reduction 24–48 h [2] [%]
 |  |  |  | 8.60 | CC[C@H](C)[C@H](NC(=O)[C@H](C)NC(=O)CNC(=O)[C@H](Cc1ccccc1)NC(=O)[C@H](CC(N)=O)NC(=O)[C@@H]1CCCN1C(=O)[C@H](CO)NC(=O)[C@H](CO)NC(=O)[C@H](Cc1c[nH]cn1)NC(=O)[C@H](CCCNC(=N)N)NC(=O)[C@H](CC(C)C)NC(=O)[C@H](Cc1ccccc1)NC(=O)[C@H](CC(N)=O)NC(=O)[C@H](C)NC(=O)[C@H](CC(C)C)NC(=O)[C@H](CCCNC(=N)N)NC(=O)[C@H](CCC(N)=O)NC(=O)[C@@H](NC(=O)[C@H](C)NC(=O)[C@@H]1CSSC[C@H](NC(=O)[C@H](CCCCN)NC(=O)CC[C@H](NC(=O)CCCCCCCCCCCCCCCCCCC(=O)O)C(=O)O)C(=O)N[C@@H](CC(N)=O)C(=O)N[C@@H]([C@@H](C)O)C(=O)N[C@@H](C)C(=O)N[C@@H]([C@@H](C)O)C(=O)N1)[C@@H](C)O)C(=O)N1CCC[C@H]1C(=O)N[C@@H](CO)C(=O)N[C@@H](CO)C(=O)N[C@H](C(=O)N[C@@H](CC(N)=O)C(=O)N[C@H](C(=O)NCC(=O)N[C@@H](CCCNC(=N)N)C(=O)N[C@@H](CC(N)=O)C(=O)N[C@H](C(=O)N[C@@H](Cc1ccc(O)cc1)C(N)=O)[C@@H](C)O)C(C)C)[C@@H](C)O [Peptide 16] | 32 ± 4 | 4 ± 5
17 | 16.8 | 2.51 | 2.49 |  | CC[C@H](C)[C@H](NC(=O)[C@H](C)NC(=O)CNC(=O)[C@H](Cc1ccccc1)NC(=O)[C@H](CC(N)=O)NC(=O)[C@@H]1CCCN1C(=O)[C@H](CO)NC(=O)[C@H](CO)NC(=O)[C@H](Cc1c[nH]cn1)NC(=O)[C@H](CCCNC(=N)N)NC(=O)[C@H](CC(C)C)NC(=O)[C@H](Cc1ccccc1)NC(=O)[C@H](CC(N)=O)NC(=O)[C@H](C)NC(=O)[C@H](CC(C)C)NC(=O)[C@H](CCCNC(=N)N)NC(=O)[C@H](CCC(N)=O)NC(=O)[C@@H](NC(=O)[C@H](C)NC(=O)[C@@H]1CSSC[C@H](NC(=O)[C@H](CCCCN)NC(=O)CC[C@H](NC(=O)CCCCCCCCCCCCCCCCCCC(=O)O)C(=O)O)C(=O)N[C@@H](CC(N)=O)C(=O)N[C@@H]([C@@H](C)O)C(=O)N[C@@H](C)C(=O)N[C@@H]([C@@H](C)O)C(=O)N1)[C@@H](C)O)C(=O)N1CCC[C@H]1C(=O)N[C@@H](CO)C(=O)N[C@@H](CO)C(=O)N[C@H](C(=O)N[C@@H](CC(N)=O)C(=O)N[C@H](C(=O)NCC(=O)N[C@@H](Cc1c[nH]cn1)C(=O)N[C@@H](CC(N)=O)C(=O)N[C@H](C(=O)N[C@@H](Cc1ccc(O)cc1)C(N)=O)[C@@H](C)O)C(C)C)[C@@H](C)O [Peptide 17] |  | 
 |  |  |  | 8.88 | CC[C@H](C)[C@H](NC(=O)[C@H](C)NC(=O)CNC(=O)[C@H](Cc1ccccc1)NC(=O)[C@H](CC(N)=O)NC(=O)[C@@H]1CCCN1C(=O)[C@H](CO)NC(=O)[C@H](CO)NC(=O)[C@H](Cc1c[nH]cn1)NC(=O)[C@H](CCCNC(=N)N)NC(=O)[C@H](CC(C)C)NC(=O)[C@H](Cc1ccccc1)NC(=O)[C@H](CC(N)=O)NC(=O)[C@H](C)NC(=O)[C@H](CC(C)C)NC(=O)[C@H](CCCNC(=N)N)NC(=O)[C@H](CCC(N)=O)NC(=O)[C@@H](NC(=O)[C@H](C)NC(=O)[C@@H]1CSSC[C@H](NC(=O)[C@H](CCCNC(=N)N)NC(=O)CNC(=O)CC[C@H](NC(=O)CCCCCCCCCCCCCCCCCCC(=O)O)C(=O)O)C(=O)N[C@@H](CC(N)=O)C(=O)N[C@@H]([C@@H](C)O)C(=O)N[C@@H](C)C(=O)N[C@@H]([C@@H](C)O)C(=O)N1)[C@@H](C)O)C(=O)N1CCC[C@H]1C(=O)N[C@@H](CO)C(=O)N[C@@H](CO)C(=O)N[C@H](C(=O)N[C@@H](CC(N)=O)C(=O)N[C@H](C(=O)NCC(=O)N[C@@H](CO)C(=O)N[C@@H](Cc1c[nH]cn1)C(=O)N[C@H](C(=O)N[C@@H](Cc1ccc(O)cc1)C(N)=O)[C@@H](C)O)C(C)C)[C@@H](C)O [Peptide 19] ({C20 diacid-γGlu}-GRCNTATCATQRLANFLRHSSPNFGAIPSSTNVGSHTY-NH2; disulfide 3-8) |  | 6 ± 7

The next lines start with the molecule.

Structure (SMILES) | EC50 [1, 4] [nM] | EC50 [1, 5] [nM] | EC50 [3, 6] [nM] | EC50 [3, 7] [nM] | hCTR pEC50 ([3]; Tables S12 and S14) | Acute food intake reduction 0–24 h [2] [%] | Acute food intake reduction 24–48 h [2] [%]
CC[C@H](C)[C@H](NC(=O)[C@H](C)NC(=O)CNC(=O)[C@H](Cc1ccccc1)NC(=O)[C@H](CC(N)=O)NC(=O)[C@@H]1CCCN1C(=O)[C@H](CO)NC(=O)[C@H](CO)NC(=O)[C@H](Cc1c[nH]cn1)NC(=O)[C@H](CCCNC(=N)N)NC(=O)[C@H](CC(C)C)NC(=O)[C@H](Cc1ccccc1)NC(=O)[C@H](CC(N)=O)NC(=O)[C@H](C)NC(=O)[C@H](CC(C)C)NC(=O)[C@H](CCCNC(=N)N)NC(=O)[C@H](CCC(N)=O)NC(=O)[C@@H](NC(=O)[C@H](C)NC(=O)[C@@H]1CSSC[C@H](NC(=O)[C@H](CCCCN)NC(=O)COCCOCCNC(=O)COCCOCCNC(=O)CC[C@H](NC(=O)CCCCCCCCCCCCCCCCCCC(=O)O)C(=O)O)C(=O)N[C@@H](CC(N)=O)C(=O)N[C@@H]([C@@H](C)O)C(=O)N[C@@H](C)C(=O)N[C@@H]([C@@H](C)O)C(=O)N1)[C@@H](C)O)C(=O)N1CCC[C@H]1C(=O)N[C@@H](CO)C(=O)N[C@@H](CO)C(=O)N[C@H](C(=O)N[C@@H](CC(N)=O)C(=O)N[C@H](C(=O)NCC(=O)N[C@@H](CO)C(=O)N[C@@H](CC(N)=O)C(=O)N[C@H](C(=O)N[C@@H](Cc1ccc(O)cc1)C(N)=O)[C@@H](C)O)C(C)C)[C@@H](C)O [Peptide 10] | 141 | 142 |  |  |  | 22 ± 5 | 1 ± 5
CC[C@H](C)[C@H](NC(=O)[C@H](C)NC(=O)CNC(=O)[C@H](Cc1ccccc1)NC(=O)[C@H](CC(N)=O)NC(=O)[C@@H]1CCCN1C(=O)[C@H](CO)NC(=O)[C@H](CO)NC(=O)[C@H](Cc1c[nH]cn1)NC(=O)[C@H](CCCNC(=N)N)NC(=O)[C@H](CC(C)C)NC(=O)[C@H](Cc1ccccc1)NC(=O)[C@H](CC(N)=O)NC(=O)[C@H](C)NC(=O)[C@H](CC(C)C)NC(=O)[C@H](CCCNC(=N)N)NC(=O)[C@H](CCC(N)=O)NC(=O)[C@@H](NC(=O)[C@H](C)NC(=O)[C@@H]1CSSC[C@H](NC(=O)[C@H](CCCCN)NC(=O)CC[C@H](NC(=O)CCCCCCCCCCCCCCCCCCC(=O)O)C(=O)O)C(=O)N[C@@H](CC(N)=O)C(=O)N[C@@H]([C@@H](C)O)C(=O)N[C@@H](C)C(=O)N[C@@H]([C@@H](C)O)C(=O)N1)[C@@H](C)O)C(=O)N1CCC[C@H]1C(=O)N[C@@H](CO)C(=O)N[C@@H](CO)C(=O)N[C@H](C(=O)N1CCC[C@H]1C(=O)N[C@H](C(=O)NCC(=O)N[C@@H](CO)C(=O)N[C@@H](CCC(=O)O)C(=O)N[C@H](C(=O)N[C@@H](Cc1ccc(O)cc1)C(N)=O)[C@@H](C)O)C(C)C)[C@@H](C)O [Peptide 11] ({C20 diacid-γGlu}-KCNTATCATQRLANFLRHSSPNFGAIPSSTPVGSETY-NH2; disulfide 2-7) | 16.2 | 16.2 | 2 | 1.99 |  |  | 
